Experimental data taken from patent US20230220327A1, “SERPIN PRODUCTION” (SOCIETE DES PRODUITS NESTLE S.A., priority 2019, published 2023).
“Also recorded” adds a separate entry of the source. No end group written: not given here.

Tests used:
B. breve ATCC 15700 (T) = experiment: serpin protein levels (ELISA) in B. breve; type: cell-based; conditions: 18 h (FIG. 7)
Protocol: (§1) 48-well microtiter plate with pH sensor and dissolved oxygen (DO) sensor were used to culture the strains in Biolector (m2p-labs Aachen, Germany). It was continuously shaken to prevent bacteria aggregation for 8 h. Cultures were harvested by centrifugation and supernatant was removed. Pellet was resuspended in PBS supplemented with halt protease inhibitor (Sigma) and lysed using glassbeads. Lysate containing both soluble and insoluble material was then collected.
(§2) Total protein content was measured using Pierce BCA kit (Thermofisher) and serpin protein concentration was determined using ELISA.
(§3) Serpin is furthermore conserved within a restricted number of Bifidobacteria species (Turroni, F. et al. Characterization of the serpin-encoding gene of Bifidobacterium breve 210B. Appl Environ Microbiol 76, 3206-3219, doi:10.1128/AEM.02938-09 (2010)). Strains belonging to these species (Table 3) were cultured in Biolector (see example 1) in a MRSc base without sugar, to which 1% glucose, 1% galactose was added. […] Cultures were grown for 18 h and harvested. Obtained pellets were further analyzed for total and serpin protein content (see example 1).

B. longum NCC 2705 = experiment: serpin protein levels (ELISA) in B. longum NCC 2705 grown on different carbohydrates; type: cell-based, Bifidobacterium longum subsp longum
Protocol: B. longum strain CNCM 1-2618 (NCC 2705) was grown in Biolector (growth conditions—anaerobic, 37 00) in MRS+5 mM L-cysteine (MRSc) base without sugar, to which different carbohydrates were added.
as §1, §2
B. longum NCC 2705 was cultured in Biolector (as described in Example 1) in a base of MRSc without sugar, with the addition of different glucose & galactose ratios, to a final concentration of 1%. Cultures were collected after 18 h of growth and analyzed for total & serpin protein levels (as described in Example 1).
B. longum NCC 2705 was grown on an MRSc base without sugar, with addition of different commercially available galactooligosaccharides (GOS) at different concentrations. […] Obtained pellets were analyzed for total and serpin protein content (see Example 1). […]

[1] = system: B. longum subsp. suis ATCC 27533 (T); experiment: serpin protein levels (ELISA) in B. longum subsp suis; type: cell-based; conditions: 1% galactose, 18 h (FIG. 7)
Protocol: as §1, §2, §3

[2] = system: B. longum subsp. infantis ATCC 15697 (T); experiment: serpin protein levels (ELISA) in B. longum subsp infantis; type: cell-based; conditions: 1% galactose, 18 h (FIG. 7)
Protocol: as §1, §2, §3

[3] = system: B. longum subsp. longum strains; experiment: serpin protein levels (ELISA) in B. longum subsp. longum strains; type: cell-based, Bifidobacterium longum subsp longum
Protocol: as §1, §2
The serpin encoding gene and its surrounding is highly conserved within the B. longum subsp. longum species. Strains of B. longum subsp. longum were selected to represent the entire span of the genetic phylogenetic tree (Table 2). […] Obtained pellets were further analyzed for total and serpin protein content (see example 1).
Serpin is furthermore conserved within a restricted number of Bifidobacteria species (Turroni, F. et al. Characterization of the serpin-encoding gene of Bifidobacterium breve 210B. Appl Environ Microbiol 76, 3206-3219, doi:10.1128/AEM.02938-09 (2010)). […] Obtained pellets were further analyzed for total and serpin protein content (see example 1).

[4] = system: B. longum subsp. longum strains; experiment: growth of B. longum subsp. longum strains on galactose as sole carbohydrate source; type: cell-based, Bifidobacterium longum subsp longum; conditions: 1% galactose, MRSc base without sugar
Protocol: The serpin encoding gene and its surrounding is highly conserved within the B. longum subsp. longum species. Strains of B. longum subsp. longum were selected to represent the entire span of the genetic phylogenetic tree (Table 2). All strains were cultured in Biolector (according to example 1) in a MRSc base without sugar, to which 1% glucose, 1% galactose or a mix of glucose & galactose (respectively 0.2 & 0.8%) was added. Cultures were grown for 18 h and harvested. Obtained pellets were further analyzed for total and serpin protein content (see example 1).

[5] = system: various forms of elastases and proteinase; conditions: Ying & Simon, 1993; cited from earlier work
[6] = system: mouse model of gluten sensitivity; conditions: elafin delivered by a recombinant Lactococcus lactis (Galipeau et al., 2014); cited from earlier work
transglutaminase 2 (TG2) = target: T1, transglutaminase 2 (TG2) (Homo sapiens, UniProt P21980); conditions: in-vitro; inhibits deamidation of 33-mer gliadin peptide (McCarville et al. 2015); cited from earlier work
T1 sequence (P21980 1-687): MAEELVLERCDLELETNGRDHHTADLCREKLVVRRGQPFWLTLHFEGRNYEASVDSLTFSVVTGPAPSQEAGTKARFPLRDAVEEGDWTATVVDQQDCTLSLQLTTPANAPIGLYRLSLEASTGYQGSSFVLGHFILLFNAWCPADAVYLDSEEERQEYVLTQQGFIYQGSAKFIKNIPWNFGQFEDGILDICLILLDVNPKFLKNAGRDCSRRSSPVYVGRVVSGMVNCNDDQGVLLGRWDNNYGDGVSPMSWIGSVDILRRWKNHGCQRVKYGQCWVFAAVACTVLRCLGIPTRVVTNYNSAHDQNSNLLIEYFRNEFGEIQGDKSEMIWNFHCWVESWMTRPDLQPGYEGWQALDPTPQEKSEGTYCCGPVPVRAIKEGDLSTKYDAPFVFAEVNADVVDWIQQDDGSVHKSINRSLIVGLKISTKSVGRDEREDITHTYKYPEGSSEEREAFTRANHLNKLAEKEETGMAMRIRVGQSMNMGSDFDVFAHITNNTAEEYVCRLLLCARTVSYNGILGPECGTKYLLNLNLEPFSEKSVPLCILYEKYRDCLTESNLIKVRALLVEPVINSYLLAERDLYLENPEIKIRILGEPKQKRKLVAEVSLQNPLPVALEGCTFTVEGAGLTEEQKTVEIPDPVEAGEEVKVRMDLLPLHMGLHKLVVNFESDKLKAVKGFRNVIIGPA

O=C[C@H](O)[C@@H](O)[C@@H](O)[C@H](O)CO [galactose]
serpin induction (B. breve ATCC 15700 (T); 1% galactose): none of the B. breve ATCC 15700 (T), B. longum subsp infantis nor B. longum subsp suis strains were induced | production of serpin in the presence of glucose (B. longum NCC 2705; different glucose & galactose ratios, final concentration 1%, 18 h, only when glucose is depleted during fermentation (FIG. 2)): can induce production of serpin | serpin protein levels (B. longum NCC 2705; grown for 8 h in MRSc base without sugar plus carbohydrate, compared to all other sugars tested (FIG. 1)): increase | serpin induction [1]: neither induced by galactose | serpin induction [2]: neither induced by galactose | serpin protein levels ([3]; 1% galactose or 0.2% glucose & 0.8% galactose vs 1% glucose, 18 h (FIGS. 5-7)): increased in all B. longum subsp. longum strains; also recorded: significant serpin protein increase | ability to grow on galactose as sole carbohydrate source [4]: Not all strains of B. longum subsp. longum were able to grow

Elafin: human serine protease inhibitor (AQEPVKGPVSTKPGSCPIILIRCAMLNPPNRCLKDTDCPGIKKCCEGSCGMACFVPQ; ends and bridges not checked; cysteine pairing not given here; UniProt P19957 61-117, looked up)
inhibitory capacity against elastases and proteinase [5]: potent inhibitory capacity | gluten-induced pathology and intestine inflammation [6]: reduce gluten-induced pathology and normalise intestine inflammation | inhibition of transglutaminase 2 (TG2) (transglutaminase 2 (TG2)): moderately inhibits

B1: Papain: papain (from Worthington), previously demonstrated to induce serpin in B. breve (protein, UniProt P00784 134-345, looked up)
Papain: IPEYVDWRQKGAVTPVKNQGSCGSCWAFSAVVTIEGIIKIRTGNLNEYSEQELLDCDRRSYGCNGGYPWSALQLVAQYGIHYRNTYPYEGVQRYCRSREKGPYAAKTDGVRQVQPYNEGALLYSIANQPVSVVLEAAGKDFQLYRGGIFVGPCGNKVDHAVAAVGYGPNYILIKNSWGTGWGENGYIRIKRGTGNSYGVCGLYTSSFYPVKN
serpin levels (B. breve ATCC 15700 (T); 0.05 mg/ml papain on top of 1% glucose): did in the B. breve ATCC 15700 (T) strain | serpin levels ([3]; 0.05 mg/ml papain on top of 1% glucose, 18 h (FIG. 7)): did not increase serpin levels
